Assay results reported in US20150335548A1, “Oral Care Composition” (COLGATE-PALMOLIVE COMPANY, priority 2012, published 2015).

Experiments:
[1] = test system: 3-day old biofilm of the artificial mouth consortium of bacteria (A. naeslundii, S. oralis, V. parvula, L. casei, F. nucleatum) and S. mutans; assay: In vitro biofilm removal, 3-day old biofilm (protocol of Example 2); type: cell-based; conditions: for Percent Removal of a 3-day Oral Biofilm: […] ionic liquid in base prototype mouth rinse of Table 1, 15 minutes, relative to water control; for Percent Biofilm Removal: BMIM-based ionic liquids
Experimental: The 3-day old biofilm was grown on a 24 well plate using the artificial mouth consortium of bacteria (A. naeslundii, S. oralis, V. parvula, L. casei, F. nucleatum) and S. mutans. To generate the biofilm, plates were inoculated with saliva overnight to form a pellicle. The consortium of bacteria (1 mL) at an OD of ˜0.2 was added to each well. The bacterial media (Tryptic Soy Broth with 6% sucrose) was changed after 48 hours. The 3-day old biofilm was treated with the prototype formulation (500 μL) for 15 minutes on a plate shaker at 300 rpm. After incubation, the supernatant was discarded. The optical density of each well was measured and the percentage reduction in optical density relative to the control (water) was calculated to determine the effect of the prototype formulation on biofilm removal. […]
Water, untreated biofilm, commercially available mouthwash formulations with CPC (Cetyl pyridinium chloride) and a mouthwash containing five enzymes for combatting biofilm acted as […] for the experiment.

A. viscosus = assay: Growth inhibition of A. viscosus (optical density over time); type: cell-based; conditions: for optical density of A. viscosus culture, 0 h / optical density of A. viscosus culture, 4 h / optical density of A. viscosus culture, 22 h / optical density of A. viscosus culture, 24 h: 10% concentration in a mouth rinse
Experimental: The effects of 1-decyl-3-methylimidazolium (DMIM) chloride on bacterial growth were investigated in vitro. DMIM chloride was incorporated into a prototype mouth rinse as illustrated in Table 17. […] The growth inhibition was measured as a change in optical density over time.
The antibacterial effects of various ionic liquids were determined according to the protocol described in Example 12.

[2] = Teeth whitening, in-vitro removal of tooth stains (one hour soak); parameters: species or system human; conditions: 1M in prototype mouth wash of Table 7
Experimental: The method of determining the effects of imidazolium-based ionic liquids on teeth whitening was carried out as follows:
The initial L*a*b* measurements of dried artificially stained human teeth were captured. The teeth were then soaked in 1 ml of sample solution for one hour, and sample was replenished at 30 minutes. After treatment, teeth were soaked in DI water for approximately 10 minutes. The teeth were left to dry at least overnight, and final L*a*b* measurements were then taken. (L*a*b* refers to stain score in accordance with the Commission International de L'Eclairage Laboratory (CIELAB) color scale. L* (lightness-darkness scale), a* (red-green chroma) and b* (yellow-blue chroma)).
The whitening efficacy was determined as follows:
All the EMIM-based compounds were evaluated at 1M concentration in a prototype mouth wash formulation as illustrated in Table 7.

[3] = test system: 3-day old multispecies oral biofilm (artificial mouth consortium combined with Streptococcus mutans); assay: In vitro removal of biofilm by prototype mouthrinse formulations (Example 8); type: cell-based; conditions: for Percent Biofilm Removal: 10% glycerin and 5% propylene glycol; for % removal in High humectant mouthwash / % removal in Low humectant mouthwash: 3-day old biofilm
Experimental: General Procedures Used to Prepare Biofilm
The analyst used a commercially available fluoride dentifrice (Colgate Pro Clinical) and a soft bristled toothbrush (Colgate 360) for routine oral hygiene for 3 days prior to the start of saliva collection. Saliva was collected in the morning, at least two hours after a meal and was centrifuged at 10,000 rpm for 20 minutes. The supernatant was decanted into a Petri dish and placed under UV for 45 minutes.
Bacteria Preparation: Bacteria were taken from the artificial mouth consortium (containing Actinomyces naeslundii, Streptococcus oralis, Veillonella parvula, Lactobacillus casei, and Fusibacterium nucleatum) and combined with Streptococcus mutans which had been grown separately in a ratio of 2:1. Bacteria were grown in tryptic soy broth (TSB) media with 6% sucrose. The resulting bacterial culture was diluted to the required volume, prior to diluting to an optical density of 0.2.
Plate Preparation: 500 μL of UV-treated saliva were added to each well of a 24-well plate. Plates were inoculated overnight in 37° C. After inoculation, excess saliva was discarded and 1 ml of bacteria was added to each well. The bacteria were allowed to attach and develop a biofilm on the bottom of each well over 2 to 4 days, changing the media every 48 hours. During media change, the old media was discarded and 1 ml of fresh media was added.
Treatment: 500 μL of ionic liquid formulation was added to each well and incubated for 4-30 minutes on a plate shaker at 300 rpm. After incubation, the supernatant was discarded. No rinsing was carried out. The optical density of each well was measured at 610 nm, and the percentage reduction in biofilm reduction relative to the control (water) was calculated.
Second Treatment: 500 μL of ionic liquid formulation was added to each well and incubated for 4-30 minutes on a plate shaker at 300 rpm. After discarding the supernatant, the optical density was measured and the percentage reduction in biofilm formation relative to the control (water) was calculated.
An 8 factor design was used. Colgate Plax Re-launch mouth rinse was used a base formulation to build upon. […] Table 11 illustrates the general formulation on the basis of which the prototype formulations were designed.
74 prototype formulations were developed. There are shown below in Table 12 (see next page). Table 12 further illustrates the percentage biofilm reduction after one 15-minute treatment of a 3-day-old biofilm with the formulation, and the viscosity for each formulation. In Table 12, PG is propylene glycol; CPC is cetyl pyridinium chloride; and TRIS is tris(2-hydroxyethyl)methylammonium methylsulfate. All amounts are given in wt %.

[4] = other ionic liquids, 3-day old biofilm
[5] = EMIM-based ionic liquids, […] in base prototype mouth rinse of Table 1, 3-day old biofilm
[6] = direct comparison EMIM vs BMIM with different anions, 3-day old biofilm
[7] = […] in base prototype mouth rinse of Table 1, 3-day old biofilm
[8] = one ionic liquid at 10, the other at 0
[9] = one ionic liquid at 20, the other at 0

Compound | Percent Removal of a 3-day Oral Biofilm [1] | optical density of A. viscosus culture, 0 h (A. viscosus) | optical density of A. viscosus culture, 4 h (A. viscosus) | optical density of A. viscosus culture, 22 h (A. viscosus) | optical density of A. viscosus culture, 24 h (A. viscosus) | also measured
C=CCn1cc[n+](C)c1.[Cl-] [AMIM Cl, 1-allyl-3-methylimidazolium (AMIM) chloride] | 44.8% | 0.1482 | 0.2265 | 0.7091 | 0.8440 | biofilm removal, comparison in words ([1]; 3-day old biofilm): effective in removing biofilm; Percent Biofilm Removed [1, 4]: 44.8%
CC(=O)[O-].CCn1cc[n+](C)c1 [EMIM OAc, EMIM acetate] | 52.1% | 0.1482 | 0.2324 | 0.7942 | 0.8223 | Percent Biofilm Removed [1, 5]: 52.1%; Percent Biofilm Removed [1, 6]: 52.1%
choline acetate | – | 0.1482 | 0.2559 | 0.9480 | 1.0385 | –
CCn1cc[n+](C)c1.Cc1ccc(S(=O)(=O)[O-])cc1 [EMIM Tosylate, EMIM tosylate] | 59.5% | – | – | – | – | Percent Biofilm Removed [1, 5]: 59.5%
CCOS(=O)(=O)[O-].CCn1cc[n+](C)c1 [EMIM Ethyl SO4, EMIM ethyl sulfate] | 48.1% | 0.1482 | 0.2499 | 0.7514 | 0.7965 | Percent Biofilm Removed [1, 5]: 48.1%; ΔE [2]: 4.41; ΔL [2]: 3.40; ΔW [2]: −2.99
CCCCn1cc[n+](C)c1.[Cl-] [BMIM Cl, 1-butyl-3-methylimidazolium (BMIM) chloride] | 43.8% | – | – | – | – | Percent Biofilm Removal [1, 7]: 43.8%; Percent Biofilm Removed [1, 6]: 43.8%
CCn1cc[n+](C)c1.[Cl-] [EMIM Cl, 1-ethyl-3-methylimidazolium (EMIM) chloride] | 44.3% | – | – | – | – | Percent Biofilm Removed [1, 5]: 44.3%; Percent Biofilm Removed [1, 6]: 44.3%
CC(=O)[O-].CCCCn1cc[n+](C)c1 [BMIM OAc, BMIM acetate] | 55.9% | – | – | – | – | Percent Biofilm Removal [1, 7]: 55.8%; Percent Biofilm Removed [1, 6]: 55.8%
CCOP(=O)([O-])OCC.CCn1cc[n+](C)c1 [EMIM diethyl PO4, EMIM diethyl phosphate] | 52.7% | – | – | – | – | Percent Biofilm Removed [1, 5]: 52.7%
OC[C@@H](O)[C@@H](O)[C@H](O)[C@@H](O)CO [sorbitol] | – | – | – | – | – | increase in biofilm removal ([3]; 20% sorbitol in the formulations): ~5%
1,2,4-trimethylpyrazolium methylsulfate [MMMPz MeSO4] | 57.8% | 0.1482 | 0.1978 | 0.8519 | 1.0042 | Percent Biofilm Removed [1, 4]: 57.9%
CCCCn1cc[n+](C)c1.COS(=O)(=O)[O-] [BMIM MeSO4, BMIM methyl sulfate] | 53.9% | – | – | – | – | Percent Biofilm Removal [1, 7]: 53.9%
CCCCCCCCOS(=O)(=O)[O-].CCCCn1cc[n+](C)c1 [BMIM Octyl SO4, BMIM octyl sulfate] | 58.6% | – | – | – | – | Percent Biofilm Removal [1, 7]: 58.6%
CCCCn1cc[n+](C)c1.[Br-] [BMIM Br, 1-butyl-3-methylimidazolium (BMIM) bromide] | 48.0% | 0.1482 | 0.2373 | 0.5994 | 0.8244 | Percent Biofilm Removal [1, 7]: 48.0%; Percent Biofilm Removed [1, 6]: 48.0%
C[N+](C)(C)CCO.[Cl-] [F: Choline chloride, Choline chloride] | – | 0.1482 | 0.2445 | 1.0236 | 1.0674 | –
COS(=O)(=O)[O-].Cc1n(C)cc[n+]1C [TMIM MeSO4, 1,2,3-trimethylimidazolium (TMIM) methyl sulfate] | 51.8% | – | – | – | – | Percent Biofilm Removed [1, 4]: 51.8%
C[N+](C)(C)CCO.O=C([O-])c1ccccc1O [Choline salicylate, choline salicylate] | – | 0.1482 | 0.1523 | 0.1542 | 0.1539 | Percent Biofilm Removal [3, 8]: 48%; Percent biofilm removal if sorbitol at 20% [3, 8]: 53%; Percent Biofilm Removal [3, 9]: 61%; Percent biofilm removal if sorbitol at 20% [3, 9]: 66%; growth inhibition of A. viscosus, in words (A. viscosus; formulated at 10% concentration in a mouth rinse): greater growth inhibition of A. viscosus than control compositions containing cetyl pyridinium chloride
tris(2-hydroxyethyl)methylammonium methylsulfate [MTEOA MeSO4] | 52.8% | 0.1482 | 0.2605 | 0.8415 | 0.9087 | Percent Biofilm Removed [1, 4]: 52.8%; % removal in High humectant mouthwash ([3]; Conc Tris-HMAM 1%): 39.0%; % removal in Low humectant mouthwash ([3]; Conc Tris-HMAM 1%): 25.6%; % removal in High humectant mouthwash ([3]; Conc Tris-HMAM 2.5%): 50.5%; % removal in Low humectant mouthwash ([3]; Conc Tris-HMAM 2.5%): 28.2%; % removal in High humectant mouthwash ([3]; Conc Tris-HMAM 5%): 53.9%; % removal in Low humectant mouthwash ([3]; Conc Tris-HMAM 5%): 30.9%; % removal in High humectant mouthwash ([3]; Conc Tris-HMAM 10%): 57.7%; % removal in Low humectant mouthwash ([3]; Conc Tris-HMAM 10%): 46.8%; % removal in High humectant mouthwash ([3]; Conc Tris-HMAM 20%): 71.1%; % removal in Low humectant mouthwash ([3]; Conc Tris-HMAM 20%): 57.3%; % removal in High humectant mouthwash ([3]; Conc Tris-HMAM 40%): 73.2%; % removal in Low humectant mouthwash ([3]; Conc Tris-HMAM 40%): 67.1%; Percent Biofilm Removal [3, 8]: 47%; Percent biofilm removal if sorbitol at 20% [3, 8]: 52%; Percent Biofilm Removal [3, 9]: 60%; Percent biofilm removal if sorbitol at 20% [3, 9]: 65%
